According to ChEMBL document CHEMBL1177795, “Synthesis of two marine farnesylacetones that dilate the basilar arteries of rabbits” (Bioorg Med Chem Lett, 2010):

What was measured:
[1] = Vasorelaxant activity against depolarization-induced basilar artery constriction in white rabbit at 10 uM; format: functional, Oryctolagus cuniculus; set-up: scale not given: the % may be the effect or the level left
[2] = Vasorelaxant activity against depolarization-induced basilar artery constriction in white rabbit; format: functional, tissue-based, Oryctolagus cuniculus

SMILES | Activity [1] | EC50 [2]
C/C(=C\C#N)CCC/C(C)=C/CCC1(C)OCCO1 | 44.6% | 
CC(=O)CC/C=C(\C)CCC/C(C)=C/C#N | 10.3% | 
C/C(=C\CCC1(C)OCCO1)CCC/C(C)=C/C(O)CC(C)C (stereo unspecified) | 99.8% | 1410 nM
C/C(=C\CCC1(C)OCCO1)CCC/C(C)=C/C(=O)CC(C)C | 83.3% | 
CC(=O)CC/C=C(\C)CCC/C(C)=C/C(O)CC(C)C (stereo unspecified) | 98.9% | 2380 nM
CC(=O)CC/C=C(\C)CC/C=C(\C)CC#N | 13.1% | 
CC(=O)CC/C=C(\C)CCC/C(C)=C/C=O | 12.6% | 
C/C(=C\CC/C(C)=C/CCC1(C)OCCO1)CC#N | 33.5% | 
C/C(=C\C=O)CCC/C(C)=C/CCC1(C)OCCO1 | 20.1% | 
